From PubChem BioAssay AID1259407 (Chemical Carcinogenesis Research Information System (CCRIS), 2018) come the findings set out here.

The structures appear in SMILES notation. The source made the active and inactive calls. The rule behind the calls is not given here.

In this data set the test system is CCRIS mutagenicity, Ames/micronucleus/aberration tests. Description: CCRIS mutagenicity studies.
[1] abbreviates: Test System: AMES SALMONELLA TYPHIMURIUM, Strain/Indicator: TA98, Metabolic Activation: NONE, Method: STANDARD PLATE.
Setting [2] is: Test System: AMES SALMONELLA TYPHIMURIUM, Strain/Indicator: TA98, Metabolic Activation: NONE, Method: PREINCUBATION
The mark [3] stands for this setting: Test System: AMES SALMONELLA TYPHIMURIUM, Strain/Indicator: TA100, Metabolic Activation: NONE, Method: PREINCUBATION
[4] abbreviates: Test System: AMES SALMONELLA TYPHIMURIUM, Strain/Indicator: TA1535, Metabolic Activation: NONE, Method: PREINCUBATION
Where [5] appears, read: Test System: AMES SALMONELLA TYPHIMURIUM, Strain/Indicator: TA1537, Metabolic Activation: NONE, Method: PREINCUBATION

Turning to `c1ccc2c(c1)ccc1c2ccc2cccnc21`, the mutagenic call runs as follows: under setting [1], “inactive; negative”; (Test System: AMES SALMONELLA TYPHIMURIUM, Strain/Indicator: TA98, Metabolic Activation: RAT, LIVER, S-9, AROCLOR 1254, Method: STANDARD PLATE) “active; positive”; (Test System: AMES SALMONELLA TYPHIMURIUM, Strain/Indicator: TA100, Metabolic Activation: RAT, LIVER, S-9, AROCLOR 1254, Method: STANDARD PLATE) “active; positive”.
Consider `O=[N+]([O-])c1ccc(/C=N/n2cccn2)o1`, for which the mutagenic call is “active; positive” (Test System: AMES SALMONELLA TYPHIMURIUM, Strain/Indicator: TA97, Metabolic Activation: NONE, Method: STANDARD PLATE); “active; positive” under setting [1]; “active; positive” (Test System: AMES SALMONELLA TYPHIMURIUM, Strain/Indicator: TA100, Metabolic Activation: NONE, Method: STANDARD PLATE); “active; positive” (Test System: AMES SALMONELLA TYPHIMURIUM, Strain/Indicator: TA102, Metabolic Activation: NONE, Method: STANDARD PLATE).
Consider `Oc1ccc(Cl)cc1Cl`, for which the mutagenic call (End Point: IN VITRO CHROMOSOMAL ABERRATIONS, Test System: CHO CELLS, Metabolic Activation: RAT, LIVER, S-9, AROCLOR 1254) was “inactive; negative”; the mutagenic call (End Point: IN VITRO CHROMOSOMAL ABERRATIONS, Test System: CHO CELLS, Metabolic Activation: RAT, LIVER, S-9, PHENOBARBITAL AND BETA-NAPHTHOFLAVONE) is “active; positive”; the mutagenic call (End Point: IN VITRO CHROMOSOMAL ABERRATIONS, Test System: TK6 HUMAN LYMPHOBLASTS, Metabolic Activation: NONE) is “inactive; negative; authors reported the results as equivocal”; the mutagenic call (Test System: AMES SALMONELLA TYPHIMURIUM, Strain/Indicator: TA98, Metabolic Activation: HAMSTER, LIVER, S-9, AROCLOR 1254, Method: PREINCUBATION) was “inactive; negative”; the mutagenic call under setting [2] was “inactive; negative”; the mutagenic call (Test System: AMES SALMONELLA TYPHIMURIUM, Strain/Indicator: TA98, Metabolic Activation: RAT, LIVER, S-9, AROCLOR 1254, Method: PREINCUBATION) is “inactive; negative”. The mutagenic call reads like this: (Test System: AMES SALMONELLA TYPHIMURIUM, Strain/Indicator: TA98, Metabolic Activation: S-9, Method: STANDARD PLATE) “inactive; negative”; (Test System: AMES SALMONELLA TYPHIMURIUM, Strain/Indicator: TA100, Metabolic Activation: HAMSTER, LIVER, S-9, AROCLOR 1254, Method: PREINCUBATION) “inactive; negative”; under setting [3], “inactive; negative”; (Test System: AMES SALMONELLA TYPHIMURIUM, Strain/Indicator: TA100, Metabolic Activation: RAT, LIVER, S-9, AROCLOR 1254, Method: PREINCUBATION) “inactive; negative”; (Test System: AMES SALMONELLA TYPHIMURIUM, Strain/Indicator: TA100, Metabolic Activation: S-9, Method: STANDARD PLATE) “inactive; negative”; under setting [4], “inactive; negative”. Further, the mutagenic call is, setting by setting: (Test System: AMES SALMONELLA TYPHIMURIUM, Strain/Indicator: TA1535, Metabolic Activation: RAT, LIVER, S-9, AROCLOR 1254, Method: PREINCUBATION) “inactive; negative”; (Test System: AMES SALMONELLA TYPHIMURIUM, Strain/Indicator: TA1537, Metabolic Activation: HAMSTER, LIVER, S-9, AROCLOR 1254, Method: PREINCUBATION) “inactive; negative”; under setting [5], “inactive; negative”; (Test System: AMES SALMONELLA TYPHIMURIUM, Strain/Indicator: TA1537, Metabolic Activation: RAT, LIVER, S-9, AROCLOR 1254, Method: PREINCUBATION) “inactive; negative”; (Test System: AMES SALMONELLA TYPHIMURIUM, Strain/Indicator: YG1021, Metabolic Activation: S-9, Method: STANDARD PLATE) “inactive; negative”; (Test System: AMES SALMONELLA TYPHIMURIUM, Strain/Indicator: YG1024, Metabolic Activation: S-9, Method: STANDARD PLATE) “inactive; negative”. The mutagenic call is, setting by setting: (Test System: AMES SALMONELLA TYPHIMURIUM, Strain/Indicator: YG1026, Metabolic Activation: S-9, Method: STANDARD PLATE) “inactive; negative”; (Test System: AMES SALMONELLA TYPHIMURIUM, Strain/Indicator: YG1029, Metabolic Activation: S-9, Method: STANDARD PLATE) “inactive; negative”; (Test System: CHINESE HAMSTER V-79, Strain/Indicator: V-79/6-THIOGUANINE, Metabolic Activation: NONE, Method: STANDARD PLATE) “inactive; negative”; (Test System: MOUSE LYMPHOMA, Strain/Indicator: L5178Y (TK+/TK-), Metabolic Activation: NONE, Method: SUSPENSION/PLATE) “active; positive”.
`CC(=O)OCCC(C)C`: the mutagenic call by setting is: (Test System: AMES SALMONELLA TYPHIMURIUM, Strain/Indicator: TA97, Metabolic Activation: HAMSTER, LIVER, S-9, AROCLOR 1254 (10%), Method: PREINCUBATION) “inactive; negative”; (Test System: AMES SALMONELLA TYPHIMURIUM, Strain/Indicator: TA97, Metabolic Activation: HAMSTER, LIVER, S-9, AROCLOR 1254 (30%), Method: PREINCUBATION) “inactive; negative”; (Test System: AMES SALMONELLA TYPHIMURIUM, Strain/Indicator: TA97, Metabolic Activation: NONE, Method: PREINCUBATION) “inactive; negative”; (Test System: AMES SALMONELLA TYPHIMURIUM, Strain/Indicator: TA97, Metabolic Activation: RAT, LIVER, S-9, AROCLOR 1254 (10%), Method: PREINCUBATION) “inactive; negative”; (Test System: AMES SALMONELLA TYPHIMURIUM, Strain/Indicator: TA97, Metabolic Activation: RAT, LIVER, S-9, AROCLOR 1254 (30%), Method: PREINCUBATION) “inactive; negative”; (Test System: AMES SALMONELLA TYPHIMURIUM, Strain/Indicator: TA98, Metabolic Activation: HAMSTER, LIVER, S-9, AROCLOR 1254 (10%), Method: PREINCUBATION) “inactive; negative”. Moreover, the mutagenic call runs as follows: (Test System: AMES SALMONELLA TYPHIMURIUM, Strain/Indicator: TA98, Metabolic Activation: HAMSTER, LIVER, S-9, AROCLOR 1254 (30%), Method: PREINCUBATION) “inactive; negative”; under setting [2], “inactive; negative”; (Test System: AMES SALMONELLA TYPHIMURIUM, Strain/Indicator: TA98, Metabolic Activation: RAT, LIVER, S-9, AROCLOR 1254 (10%), Method: PREINCUBATION) “inactive; negative”; (Test System: AMES SALMONELLA TYPHIMURIUM, Strain/Indicator: TA98, Metabolic Activation: RAT, LIVER, S-9, AROCLOR 1254 (30%), Method: PREINCUBATION) “inactive; negative”; (Test System: AMES SALMONELLA TYPHIMURIUM, Strain/Indicator: TA100, Metabolic Activation: HAMSTER, LIVER, S-9, AROCLOR 1254 (10%), Method: PREINCUBATION) “inactive; negative”; (Test System: AMES SALMONELLA TYPHIMURIUM, Strain/Indicator: TA100, Metabolic Activation: HAMSTER, LIVER, S-9, AROCLOR 1254 (30%), Method: PREINCUBATION) “inactive; negative”. The mutagenic call is, setting by setting: under setting [3], “inactive; negative”; (Test System: AMES SALMONELLA TYPHIMURIUM, Strain/Indicator: TA100, Metabolic Activation: RAT, LIVER, S-9, AROCLOR 1254 (10 OR 30%), Method: PREINCUBATION) “inactive; negative”; (Test System: AMES SALMONELLA TYPHIMURIUM, Strain/Indicator: TA1535, Metabolic Activation: HAMSTER, LIVER, S-9, AROCLOR 1254 (10%), Method: PREINCUBATION) “inactive; negative”; (Test System: AMES SALMONELLA TYPHIMURIUM, Strain/Indicator: TA1535, Metabolic Activation: HAMSTER, LIVER, S-9, AROCLOR 1254 (30%), Method: PREINCUBATION) “inactive; negative”; under setting [4], “inactive; negative”; (Test System: AMES SALMONELLA TYPHIMURIUM, Strain/Indicator: TA1535, Metabolic Activation: RAT, LIVER, S-9, AROCLOR 1254 (10%), Method: PREINCUBATION) “inactive; negative”. Moreover, the mutagenic call runs as follows: (Test System: AMES SALMONELLA TYPHIMURIUM, Strain/Indicator: TA1535, Metabolic Activation: RAT, LIVER, S-9, AROCLOR 1254 (30%), Method: PREINCUBATION) “inactive; negative”; (Test System: AMES SALMONELLA TYPHIMURIUM, Strain/Indicator: TA1537, Metabolic Activation: HAMSTER, LIVER, S-9, AROCLOR 1254 (30%), Method: PREINCUBATION) “inactive; negative”; under setting [5], “inactive; negative”; (Test System: AMES SALMONELLA TYPHIMURIUM, Strain/Indicator: TA1537, Metabolic Activation: RAT, LIVER, S-9, AROCLOR 1254 (30%), Method: PREINCUBATION) “inactive; negative”.
On to `CCc1ccc(NO)cc1`, for which, for the setting “Test System: E. COLI, Strain/Indicator: WP2 UVRA, Metabolic Activation: NONE, Method: FLUCTUATION TEST”, the mutagenic call was “active; positive”.
In the case of `O=[N+]([O-])c1cccc(-c2ccc(O)c([N+](=O)[O-])c2)c1`, under setting [2], the mutagenic call was “active; positive”.
